The IC50 is the concentration at which inhibition is half-maximal. In general, half-life refers to the time needed for the level to fall by half in the phase considered.

The nature of data set [1]: Antiplatelet activity in human platelet-rich plasma assessed as ADP-induced platelet aggregation at 10 uM relative to control. It counts as functional.
A short description of data set [2]: Antiplatelet activity in human platelet-rich plasma assessed as inhibition of ADP-induced platelet aggregation. It counts as functional, cell-free.
A short description of data set [3]: Half life in rat at 5 mg/kg, iv. Format: ADME, organism-based. Also on record: dose 5 mg/kg, route intravenous. Conditions: in vivo.

On to `CCc1nc(Nc2cccnc2Oc2ccccc2C(C)(C)C)sc1-c1ccccc1`, for which, in data set [1], the Activity is on record as 78%.
Still for that read-out and setting: the figure for `CC(C)(C)c1ccccc1Oc1ncccc1Nc1nc(C(F)(F)F)c(-c2ccc(OC(F)(F)F)cc2)s1` is 85%; for `CC(C)(C)c1ccccc1Oc1ncccc1Nc1nc(C(F)(F)F)c(-c2ccccc2F)s1` it is 41%; for `Cc1sc(Nc2cccnc2Oc2ccccc2C(C)(C)C)nc1C(F)(F)F` it is 96%.
With `COc1ccc(-c2sc(Nc3cccnc3Oc3ccccc3C(C)(C)C)nc2C(F)(F)F)cc1`, in data set [1], the Activity came out at 30%.
Still for that read-out and setting: the figure for `CC(C)(C)c1ccccc1Oc1ncccc1Nc1nc(C(C)(C)CC(=O)O)c(-c2ccccc2)s1` is 89%.
For `CC(C)(C)c1ccccc1Oc1ncccc1Nc1nc(C(F)(F)F)c(-c2ccccc2)s1`, in data set [1], the Activity is 61%. Further, the IC50 in data set [2] was 5.2 µM.
Consider `CN(C)CC(C)(C)COc1cccc(-c2sc(Nc3cccnc3Oc3ccccc3C(C)(C)C)nc2C(F)(F)F)c1`, for which, in data set [3], the half-life is 126 min. For the same compound, the Activity in data set [1] was 17%.
Take `COc1cccc(-c2sc(Nc3cccnc3Oc3ccccc3C(C)(C)C)nc2C(F)(F)F)c1`: the Activity in data set [1] stood at 41%.
On the same count and under the same terms, next, `CCOC(=O)c1sc(Nc2cccnc2Oc2ccccc2C(C)(C)C)nc1C(F)(F)F`: 50%; `CC(C)(C)c1ccccc1Oc1ncccc1Nc1nc(C(F)(F)F)c(-c2ccccc2O)s1`: 99%.
`CC(C)(C)c1ccccc1Oc1ncccc1Nc1nc(C(F)(F)F)c(-c2cccc(O)c2)s1`: in data set [1], the Activity turned out to be 98%.
On to `Cc1ccc(-c2sc(Nc3cccnc3Oc3ccccc3C(C)(C)C)nc2C(F)(F)F)cc1`, for which the Activity in data set [1] came out at 32%.
Same read-out and setting: next, `CC(C)(C)c1ccccc1Oc1ncccc1Nc1nc(C(C)(C)C)c(-c2ccccc2)s1`: 86%.
For `CN(C)C(=O)c1nc(Nc2cccnc2Oc2ccccc2C(C)(C)C)sc1-c1ccccc1`, the Activity in data set [1] is on record as 100%.
Same read-out and setting: the figure for `Cc1ccccc1-c1sc(Nc2cccnc2Oc2ccccc2C(C)(C)C)nc1C(F)(F)F` is 54%; for `Cc1noc(-c2sc(Nc3cccnc3Oc3ccccc3C(C)(C)C)nc2C(F)(F)F)n1` it is 56%; for `CC(C)(C)c1ccccc1Oc1ncccc1Nc1nc(C(F)(F)F)c(-c2ccc(C#N)cc2)s1` it is 79%.
On the same count and under the same terms, the figure for `CC(C)(C)c1ccccc1Oc1ncccc1Nc1ncc(-c2ccccc2)s1` is 87%; for `CC(C)(C)c1ccccc1Oc1ncccc1Nc1nc(C(F)(F)F)c(C#N)s1` it is 101%.
